Data set [1] is described as follows: Hen brain Se concentration after dietary selenium sources. The class given is in vivo, White-Egg-Laying Hens. The conditions noted are these: 0.3 ppm Se in hen diet; basal diet 870 ppb; Selenosource one sample only. The protocol:
(§1) Compositions and methods of the present invention were utilized to evaluate the effects of various Se sources on the accumulation of brain Se concentrations in hens and their offspring.
(§2) The study was conducted at the Coldstream Research Facility from Jun. 28, 2004 until Nov. 16, 2004. Six dietary treatments were fed to a total of 48 hens (r=8) that were bred on three consecutive days starting on Sep. 16, 2004.
(§3) The dietary treatments were as follows: Basal (no added Se) Selenite (0.3 ppm) SEL-PLEX (0.3 ppm) Tepsel (0.3 ppm) Se 2000 (0.3 ppm) Selenosource (0.3 ppm)
(§4) Chicks that hatched were divided into two groups. Half of the chicks were killed for brain collection and the remaining chicks were allowed to grow for 14 days on a Se deficient diet, at which time they were terminated for brain collection. Hen brains were analyzed for Se content individually, whereas the chick brains were homogenized and pooled because of small sample size.

A short description of data set [2]: Chick brain Se concentration at day 14 (offspring of treated hens). The class given is in vivo, chicks (offspring of white-egg-laying hens). The settings on record: chicks of hens fed 0.3 ppm Se; chicks grown 14 days on Se deficient diet; pooled brains; basal 786 ppb. The protocol: as §1, §2, §3, §4
For a further data set, the system named is Neurogenin 3 (Neurog3). Nature of the data set: Microarray gene expression, mouse intestine: Neurog3. The class given is in vivo. The conditions noted are these: Example 6 (intestine); diet 1 ppm Se, 100 days; vs selenium-deficient diet. The source says: (§5) Animal Care. Male C57BL/6J mice were housed singly and started on the experimental diets described below immediately after weaning (21 days of age). The mice were maintained in the Shared Aging Rodent Facility at the William S. Middleton Memorial Veterans Administration Medical Center (Madison, Wis.). Temperature and humidity were maintained at constant levels. Room light was controlled to provide 12-hr cycles of light and dark.
(§6) Experimental diets were created by Harlan Teklad (Madison, Wis.). Selenium content of the diets was determined by Covance Inc. (Madison, Wis.). Five (5) animals were included in each of the following treatment groups: a diet deficient in selenium (SD); a diet supplemented with selenomethionine (SM, obtained from Sigma,St. Louis, Mo.) such that the final selenium content of the diet was one (1) part per million; a diet supplemented with sodium selenite (SS, Sigma) such that the final concentration of selenium in this diet was one (1) part per million; or a diet supplemented with the yeast selenium SEL-PLEX (SP, Alltech, Lexington, Ky.), such that the final concentration of selenium in this diet was one (1) part per million. SEL-PLEX. […]
(§7) Tissue sample preparation and microarray analysis. […] For intestinal expression studies, the intestine was flushed twice with saline solution and small intestine was measured and divided in three equal segments. […]

The subject of data set [3] is sprouty homolog 2 gene (Spry2). Put plainly: Microarray gene expression, mouse intestine: Spry2. The class given is in vivo. The settings on record: Example 7 (intestine); diet 1 ppm Se, 100 days; relative to Se-deficient controls.
From the text: as §5, §6, §7

Data set [4] has as its system Complement component 1, q subcomponent, gamma polypeptide, C1qg. Put plainly: Microarray gene expression, mouse cerebral cortex: C1qg. The class given is in vivo. The conditions noted are these: diet 1 ppm Se, 100 days, vs selenium-deficient diet, negative = down-regulated, * p<0.01.
From the text: as §5, §6, §7

Data set [5] in a line: Body weight of mice on selenium diets. The class given is in vivo, mouse.
From the text: as §5
Experimental diets were created by Harlan Teklad (Madison, Wis.). Selenium content of the diets was determined by Covance Inc. (Madison, Wis.). […]
Thus, it was an object of the present invention to determine whether compositions and methods of the present invention could alter the expression levels (e.g., mRNA levels) of various genes. One group of genes analyzed were genes classically associated with selenium. As described above, the expression levels of genes were analyzed between mice with and without dietary selenium, or, between mice fed different sources of selenium) (See, e.g., Table 1, below).

Data set [6] has as its system Type 1 iodothyronine deiodinase. Nature of the data set: Microarray gene expression, mouse intestine: Type 1 iodothyronine deiodinase. The class given is in vivo. The settings on record: diet 1 ppm Se, 100 days, vs selenium-deficient diet.
From the text: as §5, §6, §7

The test system of data set [7] is type II iodothyronine deiodinase (Dio2). Put plainly: Microarray gene expression, mouse intestine: Dio2. The conditions noted are these: Example 4 (intestine); diet 1 ppm Se, 100 days; vs selenium-deficient diet. The class given is in vivo.
From the text: as §5, §6, §7

In data set [8] the test system is LIM homeobox protein 8 gene (Lhx8). Put plainly: Microarray gene expression, mouse intestine: Lhx8. The class given is in vivo. The conditions noted are these: Example 5 (intestine); diet 1 ppm Se, 100 days; vs Se-deficient subjects; p<0.01 for SEL-PLEX.
From the text: as §5, §6, §7

The subject of data set [9] is Growth arrest and DNA-damage-inducible 45 gamma (Gadd45g). Put plainly: Microarray gene expression, mouse intestine: Gadd45g. The class given is in vivo. The conditions noted are these: diet 1 ppm Se, 100 days, vs selenium-deficient diet, negative = down-regulated.
From the text: as §5, §6, §7

The test system of a further data set is Glyoxalase 1 (Glo1). Put plainly: Microarray gene expression, mouse intestine: Glo1. The class given is in vivo. The conditions noted are these: Example 4 (intestine); diet 1 ppm Se, 100 days; vs selenium-deficient diet; p<0.01 for SEL-PLEX.
From the text: as §5, §6, §7

In the next data set the test system is SelR (Selenoprotein X1). Nature of the data set: Microarray gene expression, mouse intestine: SelR. The class given is in vivo. The conditions noted are these: diet 1 ppm Se, 100 days, vs selenium-deficient diet, p<0.01 Sod-sel, p<0.05 SEL-PLEX.
From the text: as §5, §6, §7

The test system of the next data set is CORS-26. Nature of the data set: Microarray gene expression, mouse cerebral cortex: CORS-26. The class given is in vivo. The settings on record: Example 10 (cerebral cortex); diet 1 ppm Se, 100 days; vs selenium-deficient diet.
From the text: as §5, §6, §7

Data set [10] relates to transforming growth factor beta 2 (TGF-β2). Put plainly: Microarray gene expression, mouse intestine: TGF-β2. The settings on record: Example 5 (intestine); diet 1 ppm Se, 100 days; compared to controls. The class given is in vivo.
From the text: as §5, §6, §7

Another data set has as its system selenoprotein N1 (Sepn1). Put plainly: Microarray gene expression, mouse intestine: Sepn1. The class given is in vivo. The settings on record: diet 1 ppm Se, 100 days, vs selenium-deficient diet, p<0.02 for SEL-PLEX.
From the text: as §5, §6, §7

A further data set concerns Selenoprotein W (SelW). Put plainly: Microarray gene expression, mouse intestine: SelW. The class given is in vivo. The conditions noted are these: diet 1 ppm Se, 100 days, vs selenium-deficient diet.
From the text: as §5, §6, §7

Another data set concerns Cathepsin Z. Put plainly: Microarray gene expression, mouse cerebral cortex: Cathepsin Z. The class given is in vivo. The conditions noted are these: diet 1 ppm Se, 100 days, relative to Se-deficient mice, negative = down-regulated, * significant.
From the text: as §5, §6, §7

Data set [11] relates to Glutathione S-transferase, mu2 (Gstm2). Nature of the data set: Microarray gene expression, mouse intestine: Gstm2. The class given is in vivo. The conditions noted are these: diet 1 ppm Se, 100 days, vs Se-deficient diets, negative = down-regulated, NS = not significant.
From the text: as §5, §6, §7

The subject of data set [12] is Glutathione S-transferase, mu3 (Gstm3). Nature of the data set: Microarray gene expression, mouse intestine: Gstm3. The class given is in vivo. The settings on record: diet 1 ppm Se, 100 days, vs Se-deficient diets, negative = down-regulated, NS = not significant.
From the text: as §5, §6, §7

The next data set has as its system calpain-5. Nature of the data set: Expression level of calpain genes after selenium administration. The class given is in vivo. The conditions noted are these: tissue not stated; + up, − down; * not explained at this place. The protocol: Compositions and methods of the present invention were analyzed to determine if they were capable of altering the expression levels of calpain genes. Compositions comprising various forms of selenium (e.g., SeM, Sod-sel, and SEL-PLEX) were administered to subjects and the expression levels of calpain genes monitored. The expression level of calpain-5 was altered by treatment in the following ways: free selenomethionine (SM) +1.32*, Sod-sel −1.07, SEL-PLEX −1.44*.

Data set [13] relates to Glutathione S-transferase, theta 2 (Gstt2). Nature of the data set: Microarray gene expression, mouse intestine: Gstt2. The class given is in vivo. The settings on record: diet 1 ppm Se, 100 days, vs Se-deficient diets, negative = down-regulated, NS = not significant.
From the text: as §5, §6, §7

In another data set the test system is Gst zeta 1 (Gstz1). Nature of the data set: Microarray gene expression, mouse brain: Gstz1. The conditions noted are these: diet 1 ppm Se, 100 days, relative to Se-deficient animals, negative = down-regulated, * significant. The class given is in vivo.
From the text: as §5, §6, §7

For data set [14], the system named is Glutathione S-transferase, mu1 (Gstm1). Put plainly: Microarray gene expression, mouse intestine: Gstm1. The class given is in vivo. The settings on record: diet 1 ppm Se, 100 days, vs Se-deficient diets, negative = down-regulated, NS = not significant.
From the text: as §5, §6, §7

In data set [15] the test system is Thioredoxin Reductase 1 gene. Put plainly: Microarray gene expression, mouse intestine: Thioredoxin Reductase 1. The conditions noted are these: diet 1 ppm Se, 100 days, vs selenium-deficient diet, all p <0.01. The class given is in vivo.
From the text: as §5, §6, §7

Data set [16] deals with Glutathione S-transferase, alpha 3 (Gsta3). Put plainly: Microarray gene expression, mouse intestine: Gsta3. The class given is in vivo. The conditions noted are these: diet 1 ppm Se, 100 days, vs Se-deficient diets, negative = down-regulated, NS = not significant.
From the text: as §5, §6, §7

The structures appear in SMILES notation.

For the molecule `O=[Se](O)O` [Selenite], the “Hen Brain Se Concentration” value in data set [1] is recorded as 850 ppb. The “Chick Brain Se Concentration at day 14” value in data set [2] is 784 ppb.
Turning to `C[Se]CC[C@H](N)C(=O)O` [SeM, selenomethionine], the “Fold upregulation of Neurog3 expression” value with Neurogenin 3 (Neurog3) is listed as “no significant alteration”. In data set [3], the “Fold reduction in Spry2 gene expression” value was “no alteration”. The “FC (fold change) of C1qg expression” value in [4] is 1.0 fold. The “Body weights of mice” value in [5] (mouse, in vivo) was “No significant differences”. In data set [6], the “Fold increase in expression level of Type 1 iodothyronine deiodinase” value is 2.0 fold. The “Fold down-regulation of Dio2 expression” value in [7] is reported as “no ability to alter”. Also, the “Fold upregulation of Lhx8 expression” value in data set [8] is given as “not significantly different”. Besides, in data set [9], the “FC (fold change) of Gadd45g expression” value is −1.5 (p < 0.05) fold. In the data set on Glyoxalase 1 (Glo1), the “Fold reduction of Glo1 expression” value is “not significantly affected”. Further, the “Fold upregulation of SelR gene expression” value with SelR (Selenoprotein X1) was “not significantly affected”. The “Fold reduction in expression of CORS-26” value with CORS-26 was “no alteration”. In addition, in [10], the “Fold upregulation of TGF-β2 expression” value was “not altered”. Further, the “Fold increase of selenoprotein N1 (Sepn1) gene expression” value with selenoprotein N1 (Sepn1) is reported as “not significantly affected”. The “Fold upregulation of Selenoprotein W (SelW) expression” value with Selenoprotein W (SelW) is “not significantly altered”.
On to `O=[Se](O)O` [Sod-sel, sodium selenite], for which the “FC (fold change) of Cathepsin Z expression” value with Cathepsin Z was −1.30* fold. The “FC (fold change) of Gstm2 expression” value in data set [11] is given as −2.1 fold. The “Body weights of mice” value in data set [5] (compared among selenium-deficient, Se-meth, Sod-sel and SEL-PLEX diets (FIG. 1)) is “No significant differences”. In addition, the “Fold increase in expression level of Type 1 iodothyronine deiodinase” value in [6] was found to be 2.8 fold. In addition, the “FC (fold change) of Gstm3 expression” value in [12] is −2.7 fold. The “FC (fold change) of Gadd45g expression” value in data set [9] is listed as −2.0 (p < 0.01) fold. For the same molecule, the “Alteration of expression level of calpain-5” value in the data set with calpain-5 is −1.07. Besides, the “FC (fold change) of Gstt2 expression” value in [13] is listed as −1.3 fold. Also, the “FC (fold change) of Gstz1 expression in brain” value in the data set with Gst zeta 1 (Gstz1) is given as −1.3 fold. In the data set on SelR (Selenoprotein X1), the “Fold upregulation of SelR gene expression” value came out at 1.3 fold. In data set [14], the “FC (fold change) of Gstm1 expression” value is given as −2.4 fold. In data set [15], the “Fold increase in expression of the Thioredoxin Reductase 1 gene” value was 1.7 fold. Moreover, the “FC (fold change) of Gsta3 expression” value in [16] is given as −2.3 fold. In the data set on Selenoprotein W (SelW), the “Fold upregulation of Selenoprotein W (SelW) expression” value is 5.1 fold.

Source of the values: patent publication US20110038889A1, “METHODS AND COMPOSITIONS FOR ALTERING CELL FUNCTION” (ALLTECH, INC., priority 2005, published 2011).
